Consider twelve compounds from paper PMC3883446 (Bioorganic & medicinal chemistry letters, 2012).

pIC50: −log10 of the molar value. Read-outs that look alike come from different tables or passages of the source.

As usually defined, the CLint scaled is a measure of how fast metabolising enzymes remove a compound, apart from limits set by blood flow. Higher therefore signals faster metabolism. Usually pIC50 stands for −log10 of the IC50, conventionally taken in molar units.

In one data set the target is T1, hM1 (Homo sapiens, UniProt P11229).
T1 sequence (P11229 1-460): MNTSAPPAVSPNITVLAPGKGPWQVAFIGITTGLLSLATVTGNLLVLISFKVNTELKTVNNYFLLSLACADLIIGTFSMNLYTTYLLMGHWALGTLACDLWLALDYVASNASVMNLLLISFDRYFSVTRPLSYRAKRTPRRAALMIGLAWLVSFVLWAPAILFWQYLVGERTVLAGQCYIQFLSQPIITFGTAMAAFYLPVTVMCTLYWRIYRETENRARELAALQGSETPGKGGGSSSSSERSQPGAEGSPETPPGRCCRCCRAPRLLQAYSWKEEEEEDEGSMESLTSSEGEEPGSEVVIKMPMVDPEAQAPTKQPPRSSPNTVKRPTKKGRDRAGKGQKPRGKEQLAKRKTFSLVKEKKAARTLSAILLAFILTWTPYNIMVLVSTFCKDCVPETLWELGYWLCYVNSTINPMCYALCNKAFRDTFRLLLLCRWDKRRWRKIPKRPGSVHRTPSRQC
Put plainly: hM1 antagonist potency, calcium mobilization assay. The data set is classed as cell-based. The note with it: for % ACh activity remaining: at the highest concentration tested (30 μM). On the technique in general: A change in cytosolic calcium serves as a functional read-out for many receptors and channels.

For another data set, the system named is M1 mAChR. Briefly: equilibrium radioligand binding, [3H]NMS competition. As to conditions: Figure 4A.
The next data set concerns the target T2, M1 (Homo sapiens, UniProt P11229).
T2 sequence (P11229 1-460): T1 sequence (P11229 1-460)
It is filed as cell-based. As to conditions: antagonism of ACh at M1; mean ± S.E.M. of three experiments in triplicate.

For another data set, the system named is rat (r) M1-5 receptors. Briefly: calcium mobilization assay, rat M1-5 selectivity. The note with it: CRCs in the presence of an EC80 concentration of ACh; Figure 5. The data set is classed as cell-based.
Data set [1] in a line: in vitro hepatic microsome intrinsic clearance. The data set is classed as in vitro ADME, rat.
Data set [2] deals with pilocarpine-induced seizures. The note with it: rodents; cited from earlier work.
Data set [3] concerns contextual fear conditioning. As to conditions: at doses that reduced seizures; cited from earlier work.

`O=C(C1CN(S(=O)(=O)c2cccc3nsnc23)C1)N1CCN(c2ccncc2)CC1` [2d]: the “fold less active / less potent than ML012” value at hM1 (hM1, relative to ML012) stood at 3 fold.

As for `Cc1ccnc(S(=O)(=O)N2CC(C(=O)N3CCN(c4ccncc4)CC3)C2)c1` [7e], at hM1 (hM1), the “% ACh activity remaining” value amounted to 38%.

Take `O=C(C1CN(S(=O)(=O)c2ccc(Cl)cn2)C1)N1CCN(c2ccncc2)CC1` [7f]: the “% ACh activity remaining” value at hM1 (hM1) is on record as 41%.

In the case of `O=C(C1CN(S(=O)(=O)c2ccc3c(c2)OCO3)C1)N1CCN(c2ccncc2)CC1` [7o], the “displacement of the orthosteric ligand [3H]NMS” value (“displacement” for short) in the data set with M1 mAChR was “complete displacement”. For the same compound, the “slope of Schild regression” value with M1 turned out to be 0.96 ± 0.02.

As for `COc1ccc(S(=O)(=O)N2CC(C(=O)N3CCN(c4ccncc4)CC3)C2)cn1` [7t], the “% ACh activity remaining” value at hM1 (hM1) was found to be 20%.

In the case of `O=C(C1CN(S(=O)(=O)c2ccc(C(F)(F)F)nc2)C1)N1CCN(c2ccncc2)CC1` [7u], the “% ACh activity remaining” value on hM1 (hM1) was determined as 40%.

Turning to `O=C(C1CN(S(=O)(=O)c2ccc3c(c2)CCO3)C1)N1CCN(c2ccncc2)CC1` [7v], the “fold increase in potency” value at hM1 (hM1, relative to ML012) is 8 fold.

For the compound `O=C(C1CN(S(=O)(=O)c2cccc3cnccc23)C1)N1CC2CN(c3ccncc3)CC2C1` (stereo not drawn) [12a], the “selectivity at rat M1 compared to M2-5” value in the data set with rat (r) M1-5 receptors is “selectively antagonize M1”. Further, the “displacement” value in the data set with M1 mAChR is reported as “complete displacement”. The “slope of Schild regression” value in the data set with M1 is reported as 0.94 ± 0.01. Moreover, in data set [1] (predicted from microsome intrinsic clearance), the “predicted hepatic clearance (CLHEP)” value is 42.3 mL/min/kg. In addition, the CLint scaled in data set [1] (rat, hepatic microsomes) turned out to be 107 mL/min/kg.

Turning to `O=C(C1CN(S(=O)(=O)c2cccc3nonc23)C1)N1CCN(c2ccccn2)CC1` [(1-(Benzo[c][1,2,5]oxadiazol-4-ylsulfonyl)azetidin-3-yl)(4-(pyridin-2-yl)piperazin-1-yl)methanone], the negative logarithm of the IC50 (pIC50) on hM1 was 5.30.

Turning to `Brc1ccc(N2CCNCC2)nc1` [(5-bromopyridin-2-yl)piperazine], the pIC50 at hM1 (read-out: hM1 IC50) is 6.55.

Turning to `O=C(CCNS(=O)(=O)c1cccc2nsnc12)N1CCN(c2ccncc2)CC1` [ML012], the “effect on pilocarpine-induced seizures” value in data set [2] is “reduced pilocarpine-induced seizures”. For the same compound, the “impact on contextual fear conditioning” value in data set [3] is “no negative impact on contextual fear conditioning”.

On to `CN1[C@@H]2CC[C@H]1C[C@@H](OC(=O)C(CO)c1ccccc1)C2` (stereo partly drawn) [atropine, reference compound], for which, in the data set with M1 mAChR, the “displacement” value was “compete with [^3H]NMS binding at M1”.
